Data taken from the supplement of paper PMC4862054.

Experiments:
Assay in all cases: normalised viability (% of control), CellTiter-Blue; higher = more viable cells (about 100 = DMSO control)
Conditions in all cases: incubation time: 72 h
[1] = tested on: BT-474
Method in brief: (§1)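 Breast cancer cell lines in 20 µl suspension were seeded onto 384-well plates pre-loaded with compound dissolved in 5 µl medium, then incubated 72 h. CellTiter-Blue reagent (2.5 µl) was added for 2 h at 37 °C and fluorescence read at 560/590 nm. Each plate was normalised to vehicle (100) and a positive kill control (0), with Z'-factor quality control. The value is normalised viability at one listed concentration of the series.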

[2] = tested on: BT-549
Method in brief: as §1

[3] = tested on: CAL-120
Method in brief: as §1

[4] = tested on: CAL-148
Method in brief: as §1

[5] = tested on: CAL-51
Method in brief: as §1

[6] = tested on: CAL-85-1
Method in brief: as §1

[7] = tested on: DU-4475
Method in brief: as §1

[8] = tested on: HCC1143
Method in brief: as §1

[9] = tested on: HCC1937
Method in brief: as §1

[10] = tested on: HDQ-P1
Method in brief: as §1

[11] = tested on: Hs578T
Method in brief: as §1

[12] = tested on: MDA-MB-231
Method in brief: as §1

[13] = tested on: MDA-MB-436
Method in brief: as §1

[14] = tested on: MDA-MB-468
Method in brief: as §1

[15] = tested on: MFM-223
Method in brief: as §1

[16] = tested on: SK-BR-3
Method in brief: as §1

CC[C@@H]1C(=O)N(C)c2cnc(Nc3ccc(C(=O)N[C@H]4CC[C@H](N5CCN(CC6CC6)CC5)CC4)cc3OC)nc2N1C(C)C [Volasertib]
normalised viability [%]
Conditions	0.3 nM	1 nM	3 nM	10 nM	100 nM	1000 nM
[1]	–	127	–	–	56.6	96.8
[2]	–	94.9	–	–	36.9	41.6
[3]	–	91.1	–	–	26.8	24.7
[4]	98.2	–	94.8	72	–	–
[5]	116	–	99.8	100	–	–
[6]	96.4	–	86.7	82.3	–	–
[7]	98.4	–	88.2	86.1	–	–
[8]	–	86.3	–	–	41.2	41.2
[9]	–	131	–	–	30.8	34.9
[10]	108	–	84	76.4	–	–
[11]	–	111	–	–	40.3	35.1
[12]	–	114	–	–	36.3	45.9
[13]	–	113	–	–	83.5	80.8
[14]	–	104	–	–	45	51.9
[15]	–	88.8	–	–	48.9	56.2
[16]	–	105	–	–	20.7	24.1

COc1cc2c(N3CCN(C(=O)Nc4ccc(OC(C)C)cc4)CC3)ncnc2cc1OCCCN1CCCCC1 [Tandutinib]
normalised viability [%]
Conditions	0.3 nM	1 nM	3 nM	10 nM	100 nM	1000 nM
[1]	–	138	–	–	116	125
[2]	–	108	–	–	95.2	94.1
[3]	–	110	–	–	106	114
[4]	100	–	102	105	–	–
[5]	110	–	101	94.2	–	–
[6]	102	–	91.2	103	–	–
[7]	107	–	92.9	98.1	–	–
[8]	–	100	–	–	118	108
[9]	–	101	–	–	78.2	115
[10]	105	–	95.5	109	–	–
[11]	–	115	–	–	116	96.2
[12]	–	107	–	–	108	122
[13]	–	95	–	–	81.9	112
[14]	–	105	–	–	118	110
[15]	–	104	–	–	98	113
[16]	–	111	–	–	111	114

NC(=O)NO [Hydroxyurea]
normalised viability [%]
Conditions	30 nM	100 nM	300 nM	1000 nM	10000 nM	100000 nM
[1]	–	110	–	–	111	110
[2]	–	82.8	–	–	93.8	87
[3]	–	113	–	–	95.4	101
[4]	106	–	116	112	–	–
[5]	103	–	107	104	–	–
[6]	104	–	93.2	105	–	–
[7]	122	–	115	98.3	–	–
[8]	–	99.1	–	–	99.3	92.4
[9]	–	86.9	–	–	81.2	72.7
[10]	108	–	122	111	–	–
[11]	–	110	–	–	104	90.3
[12]	–	113	–	–	98.8	93.2
[13]	–	99.4	–	–	89.4	102
[14]	–	110	–	–	111	108
[15]	–	105	–	–	98.8	116
[16]	–	114	–	–	117	114

C[C@@H](C(=O)O)c1ccc(-c2ccccc2)c(F)c1 [Tarenflurbil]
normalised viability [%]
Conditions	3 nM	10 nM	30 nM	100 nM	1000 nM	10000 nM
[1]	–	112	–	–	107	113
[2]	–	97.6	–	–	104	112
[3]	–	94	–	–	92.2	99.4
[4]	80	–	96.6	87.3	–	–
[5]	118	–	115	111	–	–
[6]	87.2	–	88.4	93	–	–
[7]	101	–	95.6	108	–	–
[8]	–	86.4	–	–	95.3	86.9
[9]	–	84.3	–	–	92.9	102
[10]	106	–	106	98.9	–	–
[11]	–	97.7	–	–	106	92.6
[12]	–	97.8	–	–	88.6	103
[13]	–	104	–	–	90.4	138
[14]	–	100	–	–	119	90
[15]	–	93.6	–	–	97.2	93.2
[16]	–	99.3	–	–	105	126

Cc1c(N)nc([C@H](CC(N)=O)NC[C@H](N)C(N)=O)nc1C(=O)N[C@H](C(=O)N[C@H](C)[C@@H](O)[C@H](C)C(=O)N[C@H](C(=O)NCCc1nc(-c2nc(C(=O)NCCC[S+](C)C)cs2)cs1)[C@@H](C)O)[C@@H](OC1OC(CO)C(O)C(O)C1OC1OC(CO)C(O)C(OC(N)=O)C1O)c1cnc[nH]1 (stereo not given in full) [Bleomycin]
normalised viability [%]
Conditions	3 nM	10 nM	30 nM	100 nM	1000 nM	10000 nM
[1]	–	102	–	–	97.9	98
[2]	–	87.5	–	–	57.1	62.4
[3]	–	94.4	–	–	78.5	67.7
[4]	88	–	82.5	87	–	–
[5]	97.6	–	96	96.3	–	–
[6]	101	–	94.9	96.6	–	–
[7]	117	–	84.4	116	–	–
[8]	–	74.6	–	–	64.2	49.4
[9]	–	92.2	–	–	54.7	28.2
[10]	80.9	–	88.5	27.8	–	–
[11]	–	90.3	–	–	64.3	50
[12]	–	88.7	–	–	70	60.3
[13]	–	92.3	–	–	79	44.7
[14]	–	94.6	–	–	86.6	72.7
[15]	–	106	–	–	107	100
[16]	–	89.6	–	–	99.1	89.5
